Data as given in patent US9271960B2, “Tetrahydrocarbazoles as active agents for inhibiting VEGF production by translational control” (PTC Therapeutics, Inc., priority 2004, dated 2016).

System: VEGF
Assay: Hypoxia-inducible endogenous VEGF expression ELISA in HeLa cells
Assay type: cell-based
Details: Homo sapiens, HeLa, compounds 1-155, hypoxic conditions (1% O2), VEGF protein by ELISA, read-out: ELISA Activity
Protocol: The ability of compounds of the invention to modulate hypoxia-inducible endogenous VEGF expression is analyzed as follows. VEGF protein levels are monitored by an ELISA assay (R&D Systems). Briefly, HeLa cells are cultured for 24-48 hours under hypoxic conditions (1% O2, 5% CO2, balanced with nitrogen) in the presence or absence of a compound of the invention. The conditioned media is then assayed by ELISA, and the concentration of VEGF is calculated from the standard ELISA curve of each assay.
A dose-response analysis is performed using the ELISA assay and conditions described above. A series of different concentrations (e.g., seven) are analyzed. In parallel, a dose-response cytotoxicity assay is performed using Cell Titer Glo (Promega) under the same conditions as the ELISA to ensure that the inhibition of VEGF expression is not due to cytotoxicity. Dose-response curves are plotted using percentage inhibition versus concentration of the compound, and EC50 and CC50 values are generated for each compound with the maximal inhibition set as 100% and the minimal inhibition as 0%.
Compounds 156-188 in Table 1 are commercially available. In Table 1, each of the represented compounds is followed by one to five stars.

| SMILES | EC50 [nM] |
| --- | --- |
| Brc1ccc2[nH]c3c(c2c1)CCc1cnoc1-3 [Compound 78, 7-Bromo-4,10-dihydro-5H-1-oxa-2,10-diaza-cyclopenta[a]fluorine] | > 1000 |
| N#Cc1ccn(C2CCCc3c2[nH]c2ccc(Br)cc32)c1 (stereo not shown) [Compound 42, 1-(6-Bromo-2,3,4,9-tetrahydro-1H-carbazol-1-yl)-1H-pyrrole-3-carbonitrile] | 40 to 200 |
| O=C(NC1CCCc2c1[nH]c1ccc(Br)cc21)C1CC1 (stereo not shown) [Compound 147, Cyclopropanecarboxylic acid (6-bromo-2,3,4,9-tetrahydro-1H-carbazol-1-yl)-amide] | 40 to 200 |
| FC(F)(F)Oc1ccc(NC2CCCc3c2[nH]c2ccc(Br)cc32)cc1 (stereo not shown) [Compound 19, (6-Bromo-2,3,4,9-tetrahydro-1H-carbazol-1-yl)-(4-trifluoromethoxy-phenyl)-amine] | < 10 |
| O=C(NC1CCCc2c1[nH]c1ccc(Br)cc21)c1cnccn1 (stereo not shown) [Compound 74, Pyrazine-2-carboxylic acid (6-bromo-2,3,4,9-tetrahydro-1H-carbazol-1-yl)-amide] | < 10 |
| NC1CCCc2c1[nH]c1ccc(Cl)cc21 (stereo not shown) [Compound 96, 6-Chloro-2,3,4,9-tetrahydro-1H-carbazol-1-ylamine] | > 1000 |
| COc1ccc(NC2CCCc3c2[nH]c2ccc(C(F)(F)F)cc32)cc1 (stereo not shown) [Compound 139, (4-Methoxy-phenyl)-(6-trifluoromethyl-2,3,4,9-tetrahydro-1H-carbazol-1-yl)-amine] | 10 to 40 |
| COc1ccc2[nH]c3c(c2c1)CCCC3N (stereo not shown) [Compound 95, 6-Methoxy-2,3,9-tetrahydro-1H-carbazol-1-ylamine] | > 1000 |
| O=C(NC1CCCc2c1[nH]c1ccc(Br)cc21)c1ccc(Cl)cc1 (stereo not shown) [Compound 134, N-(6-Bromo-2,3,4,9-tetrahydro-1H-carbazol-1-yl)-4-chloro-benzamide] | 10 to 40 |
| Fc1ccc(NC2CCCc3c2[nH]c2ccc(Br)cc32)cc1 (stereo not shown) [Compound 24, (6-Bromo-2,3,4,9-tetrahydro-1H-carbazol-1-yl)-(4-fluoro-phenyl)-amine] | 10 to 40 |
| COc1cccc(NC2CCCc3c2[nH]c2ccc(Br)cc32)c1 (stereo not shown) [Compound 10, (6-Bromo-2,3,4,9-tetrahydro-1H-carbazol-1-yl)-(3-methoxy-phenyl)-amine] | < 10 |
| COC(=O)c1ccc2[nH]c3c(c2c1)CCCC3n1cccc1 (stereo not shown) [Compound 115, 8-Pyrrol-1-yl-6,7,8,9-tetrahydro-5H-carbazole-3-carboxylic acid methyl ester] | > 1000 |
| O=C1CCCc2c1[nH]c1c(Br)cccc21 [Compound 97, 8-Bromo-2,3,4,9-tetrahydro-carbazol-1-one] | > 1000 |
| O/N=C1\CCCc2c1[nH]c1cc(Br)ccc21 [Compound 92, 7-Bromo-2,3,4,9-tetrahydro-carbazol-1-one oxime] | > 1000 |
| O=C(NC1CCCc2c1[nH]c1ccc(Br)cc21)c1cccs1 (stereo not shown) [Compound 128, Thiophene-2-carboxylic acid (6-bromo-2,3,4,9-tetrahydro-1H-carbazol-1-yl)-amide] | < 10 |
| CC(=O)Nc1ccc(NC2CCCc3c2[nH]c2ccc(Br)cc32)cc1 (stereo not shown) [Compound 57, N-[4-(6-Bromo-2,3,4,9-tetrahydro-1H-carbazol-1-ylamino)-phenyl]-acetamide] | 200 to 1000 |
| Cn1c2c(c3cc(Br)ccc31)CCCC2n1cccc1 (stereo not shown) [Compound 117, 6-Bromo-9-methyl-1-pyrrol-1-yl-2,3,4,9-tetrahydro-1H-carbazole] | > 1000 |
| NC1CCCc2c1[nH]c1ccc(Br)cc21 (stereo not shown) [Compound 89, 6-Bromo-2,3,4,9-tetrahydro-1H-carbazol-1-ylamine] | > 1000 |
| Brc1ccc2[nH]c3c(c2c1)CCCC3c1nnc(-c2ccccc2)o1 (stereo not shown) [Compound 111, 6-Bromo-1-(5-phenyl-[1,3,4]oxadiazol-2-yl)-2,3,4,9-tetrahydro-1H-carbazole] | > 1000 |
| CC1CCc2c(n(C)c3ccc(Br)cc23)C1=O (stereo not shown) [Compound 53, 6-Bromo-2,9-dimethyl-2,3,4,9-tetrahydro-carbazol-1-one] | 40 to 200 |
| Brc1ccc2c3c([nH]c2c1)C(Nc1ccccc1)CCC3 (stereo not shown) [Compound 47, (7-Bromo-2,3,4,9-tetrahydro-1H-carbazol-1-yl)-phenyl-amine] | 40 to 200 |
| Brc1ccc2[nH]c3c(c2c1)CCCC3Nc1ncccn1 (stereo not shown) [Compound 141, (6-Bromo-2,3,4,9-tetrahydro-1H-carbazol-1-yl)-pyrimidin-2-yl-amine] | < 10 |
| Brc1ccc2oc3c(c2c1)CCCC3Nc1ccccc1 (stereo not shown) [Compound 107, (8-Bromo-1,2,3,4-tetrahydro-dibenzofuran-4-yl)-phenyl-amine] | > 1000 |
| Brc1ccc2[nH]c3c(c2c1)CCCC3NCc1ccco1 (stereo not shown) [Compound 68, (6-Bromo-2,3,4,9-tetrahydro-1H-carbazol-1-yl)-furan-2-ylmethyl-amine] | 200 to 1000 |
| FC(F)(F)c1ccc2[nH]c3c(c2c1)CCCC3Nc1ccccc1 (stereo not shown) [Compound 14, Phenyl-(6-trifluoromethyl-2,3,4,9-tetrahydro-1H-carbazol-1-yl)-amine] | < 10 |
| COC(=O)c1ccn(C2CCCc3c2[nH]c2ccc(Br)cc32)c1 (stereo not shown) [Compound 26, 1-(6-Bromo-2,3,4,9-tetrahydro-1H-carbazol-1-yl)-1H-pyrrole-3-carboxylic acid methyl ester] | 10 to 40 |
| Brc1ccc2[nH]c3c(c2c1)CCCC3Nc1ccccc1 (stereo not shown) [Compound 2, (6-Bromo-2,3,4,9-tetrahydro-1H-carbazol-1-yl)-phenyl-amine] | < 10 |
| Brc1ccc2[nH]c3c(c2c1)CCCC3NCc1ccc2c(c1)OCO2 (stereo not shown) [Compound 62, Benzo[1,3]dioxo-5-ylmethyl-(6-bromo-2,3,4,9-tetrahydro-1H-carbazol-1-yl)-amine] | 200 to 1000 |
| Cc1cc(C)cc(NC2CCCc3c2[nH]c2ccc(Br)cc32)c1 (stereo not shown) [Compound 23, (6-Bromo-2,3,4,9-tetrahydro-1H-carbazol-1-yl)-(3,5-dimethyl-phenyl)-amine] | 10 to 40 |

Same assay, conditions: Homo sapiens, HeLa, compounds 191-239, hypoxic conditions, VEGF protein by ELISA, read-out: ELISA Activity EC50

| SMILES | EC50 [nM] |
| --- | --- |
| Brc1ccc2[nH]c3c(c2c1)CCCC3c1ccc(OCCCN2CCOCC2)cc1 (stereo not shown) [Compound 210] | < 10 |
| Brc1ccc2[nH]c3c(c2c1)CCCC3c1ccc(OCCCN2CCSCC2)cc1 (stereo not shown) [Compound 206] | < 10 |
| OCC(O)COc1ccc(C2CCCc3c2[nH]c2ccc(Cl)cc32)cc1 (stereo not shown) [Compound 213] | 10 to 40 |
| OC(COc1ccc(C2CCCc3c2[nH]c2ccc(Br)cc32)cc1)Cn1ccnn1 (stereo not shown) [Compound 202] | < 10 |
| Clc1ccc2[nH]c3c(c2c1)CCCC3c1ccc(OCC2CO2)cc1 (stereo not shown) [Compound 224] | < 10 |
| Oc1ccc(C2CCCc3c2[nH]c2ccc(Cl)cc32)cc1 (stereo not shown) [Compound 223] | 40 to 200 |
| Cc1cc(C(=O)NC2CCCc3c2[nH]c2ccc(Br)cc32)no1 (stereo not shown) [Compound 191] | < 10 |
| CC(=O)N1CCN(CC(O)COc2ccc(C3CCCc4c3[nH]c3ccc(Cl)cc43)cc2)CC1 (stereo not shown) [Compound 214] | 40 to 200 |

Same assay, conditions: Homo sapiens, HeLa, purchased compounds 156-188, hypoxic conditions, VEGF protein by ELISA, read-out: ELISA Activity

| SMILES | EC50 [nM] |
| --- | --- |
| CCNC1CCCc2c1[nH]c1ccc(C)cc21 (stereo not shown) [Compound 185, Ethyl-(6-methyl-2,3,4,9-tetrahydro-1H-carbazol-1-yl)-amine] | > 1000 |
| Cc1ccc2c(c1)c1c3n2CCN(C(=O)CN2CCN(C(=O)c4ccco4)CC2)C3CCC1 (stereo not shown) [Compound 170, 2-[4-(Furan-2-carbonyl)-piperazin-1-yl]-(8-methyl-1,2,3,3a,4,5,6-hexahydro-pyrazino[3,2,1-jk]carbazol-3-yl)-ethanone] | > 1000 |
| Brc1ccc2[nH]c3c(c2c1)CCCC3n1cccc1 (stereo not shown) [Compound 156, 6-Bromo-1-pyrrol-1-yl-2,3,4,9-tetrahydro-1H-carbazole] | < 10 |
| Cc1ccc2c(c1)c1c3n2CCCN(Cc2cccc(Cl)c2)C3CCC1 (stereo not shown) [Compound 180, 4-(3-Chloro-benzyl)-11-methyl-1,2,3,3a,4,5,6,7-octahydro-[1,4]diazepino[3,2,1-jk]carbazole] | > 1000 |
| CC(C)COc1ccc2c(c1)c1c3n2CCNC3CCC1 (stereo not shown) [Compound 167, 8-Isobutoxy-2,3,3a,4,5,6-hexahydro-1H-pyrazino[3,2,1-jk]carbazole] | > 1000 |
| CC(=O)SCCC(=O)N1CCn2c3c(c4cc(C)ccc42)CCCC31 (stereo not drawn) [Compound 182, Thioacetic acid S-[3-(8-methyl-1,2,3a,4,5,6-hexahydro-pyrazino[3,2,1-jk]carbazol-3-yl)-3-oxo-propyl] ester] | > 1000 |
| Cc1ccc2c(c1)c1c3n2CCN(C(=O)c2ccccc2Cl)C3CCC1 (stereo not shown) [Compound 171, (2-Chloro-phenyl)-(8-methyl-1,2,3a,4,5,6-hexahydro-pyrazino[3,2,1-jk]carbazol-3-yl)-methanone] | > 1000 |
| CC(=O)NC1CCCc2c1[nH]c1ccc(C)cc21 (stereo not shown) [Compound 178, N-(6-Methyl-2,3,4,9-tetrahydro-1H-carbazol-1-yl)-acetamide] | > 1000 |
| COc1ccc(NC(=S)N2CCn3c4c(c5cc(C)ccc53)CCCC42)cc1 (stereo not shown) [Compound 172, 8-Methyl-1,2,3a,4,5,6-hexahydro-pyrazino[3,2,1-jk]carbazole-3-carbothioic acid (4-methoxy-phenyl)-amide] | > 1000 |

Same assay, conditions: Homo sapiens, HeLa, purchased compounds 156-188, hypoxic conditions, VEGF protein by ELISA, read-out: ELISA EC50

| SMILES | EC50 [nM] |
| --- | --- |
| CCNC1CCCc2c1[nH]c1ccc(C)cc21 (stereo not shown) [Compound 185, Ethyl-(6-methyl-2,3,4,9-tetrahydro-1H-carbazol-1-yl)-amine] | > 10000 |
| Cc1ccc2c(c1)c1c3n2CCN(C(=O)CN2CCN(C(=O)c4ccco4)CC2)C3CCC1 (stereo not shown) [Compound 170, 2-[4-(Furan-2-carbonyl)-piperazin-1-yl]-(8-methyl-1,2,3,3a,4,5,6-hexahydro-pyrazino[3,2,1-jk]carbazol-3-yl)-ethanone] | > 10000 |
| Brc1ccc2[nH]c3c(c2c1)CCCC3n1cccc1 (stereo not shown) [Compound 156, 6-Bromo-1-pyrrol-1-yl-2,3,4,9-tetrahydro-1H-carbazole] | 10 |
| Cc1ccc2c(c1)c1c3n2CCCN(Cc2cccc(Cl)c2)C3CCC1 (stereo not shown) [Compound 180, 4-(3-Chloro-benzyl)-11-methyl-1,2,3,3a,4,5,6,7-octahydro-[1,4]diazepino[3,2,1-jk]carbazole] | > 10000 |
| CC(C)COc1ccc2c(c1)c1c3n2CCNC3CCC1 (stereo not shown) [Compound 167, 8-Isobutoxy-2,3,3a,4,5,6-hexahydro-1H-pyrazino[3,2,1-jk]carbazole] | 6930 |
| CC(=O)SCCC(=O)N1CCn2c3c(c4cc(C)ccc42)CCCC31 (stereo not drawn) [Compound 182, Thioacetic acid S-[3-(8-methyl-1,2,3a,4,5,6-hexahydro-pyrazino[3,2,1-jk]carbazol-3-yl)-3-oxo-propyl] ester] | > 10000 |
| Cc1ccc2c(c1)c1c3n2CCN(C(=O)c2ccccc2Cl)C3CCC1 (stereo not shown) [Compound 171, (2-Chloro-phenyl)-(8-methyl-1,2,3a,4,5,6-hexahydro-pyrazino[3,2,1-jk]carbazol-3-yl)-methanone] | > 10000 |
| CC(=O)NC1CCCc2c1[nH]c1ccc(C)cc21 (stereo not shown) [Compound 178, N-(6-Methyl-2,3,4,9-tetrahydro-1H-carbazol-1-yl)-acetamide] | > 10000 |
| COc1ccc(NC(=S)N2CCn3c4c(c5cc(C)ccc53)CCCC42)cc1 (stereo not shown) [Compound 172, 8-Methyl-1,2,3a,4,5,6-hexahydro-pyrazino[3,2,1-jk]carbazole-3-carbothioic acid (4-methoxy-phenyl)-amide] | > 10000 |
